Results taken from patent US20200131132A1, “FARNESOID X RECEPTOR AGONISTS AND USES THEREOF” (Metacrine, Inc., priority 2017, published 2020).

Each compound was assayed against T1, hFXR (Homo sapiens, UniProt Q96RI1) (assay: In Vitro FXR Assay (TK)). Settings: CV-1 cells transfected with hFXR, hRXR, TK-ECRE-luc and pCMX-YFP; compounds incubated 18 hrs; luminescence.
T1 construct: expressed in transfected cells; host or cells: CV-1 cells
T1 sequence (Q96RI1 1-486): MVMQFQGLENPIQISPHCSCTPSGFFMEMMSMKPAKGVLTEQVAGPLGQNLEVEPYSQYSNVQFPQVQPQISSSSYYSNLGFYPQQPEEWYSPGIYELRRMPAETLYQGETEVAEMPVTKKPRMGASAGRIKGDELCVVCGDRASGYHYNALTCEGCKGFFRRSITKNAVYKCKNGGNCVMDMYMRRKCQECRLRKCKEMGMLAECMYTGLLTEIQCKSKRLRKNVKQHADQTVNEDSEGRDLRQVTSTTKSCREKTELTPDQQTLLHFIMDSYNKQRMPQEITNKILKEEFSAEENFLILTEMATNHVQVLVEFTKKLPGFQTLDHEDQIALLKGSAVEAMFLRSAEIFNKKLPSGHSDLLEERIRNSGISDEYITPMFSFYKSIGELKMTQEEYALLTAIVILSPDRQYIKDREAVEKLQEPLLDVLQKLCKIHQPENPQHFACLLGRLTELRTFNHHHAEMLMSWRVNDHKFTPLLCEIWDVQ
T1 sequence (P19793 1-462 partner): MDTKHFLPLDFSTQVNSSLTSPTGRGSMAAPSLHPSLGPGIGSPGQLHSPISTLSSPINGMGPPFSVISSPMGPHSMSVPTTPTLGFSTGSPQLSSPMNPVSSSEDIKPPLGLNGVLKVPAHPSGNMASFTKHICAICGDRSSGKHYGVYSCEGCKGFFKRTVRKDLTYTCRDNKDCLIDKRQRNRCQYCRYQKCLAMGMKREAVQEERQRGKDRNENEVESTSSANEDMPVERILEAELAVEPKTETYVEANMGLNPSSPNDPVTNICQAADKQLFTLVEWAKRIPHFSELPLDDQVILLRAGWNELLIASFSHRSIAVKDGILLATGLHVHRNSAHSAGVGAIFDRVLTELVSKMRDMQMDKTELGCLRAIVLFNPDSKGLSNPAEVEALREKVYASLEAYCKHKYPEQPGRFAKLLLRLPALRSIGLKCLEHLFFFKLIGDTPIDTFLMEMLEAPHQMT
Assay type: cell-based
Method: CV-1 cells were seeded at a density of 2,000,000 cells in a T175 flask with DMEM+10% charcoal double-stripped FBS and incubated at 37° C. in 5% CO2 for 18 h (O/N).
After 18 h of incubation, the medium in the T175 flask was changed with fresh DMEM+10% charcoal super-stripped serum. In a polypropylene tube, 2500 μL OptiMEM (Life Technologies, Cat #31985-062) was combined with expression plasmids for hFXR, hRXR, TK-ECRE-luc and pCMX-YFP. The tube was then briefly vortexed and incubated at room temperature for 5 minutes. Transfection reagent (X-tremeGENE HP from Roche, Cat #06 366 236 001) was added to the OptiMEM/plasmid mixture vortexed and incubated at room temperature for 20 minutes. Following incubation, the transfection reagent/DNA mixture complex was added to cells in the T175 flask and the cells were incubated at 37° C. in 5% CO2 for 18 h (O/N).
Compounds were serially diluted in DMSO and added to transfected CV-1 cells. The cells were then incubated for 18 hrs. The next day cells were lysed and examined for luminescence.
For `COc1ccc(-c2ccc(CN(C(=O)CC(C)(C)C)c3nccc4cc(N5CCC5)ccc34)cc2)cc1C` [Compound 6.04, N-(6-(Azetidin-1-yl)isoquinolin-1-yl)-N-((4′-methoxy-3′-methyl-[1,1′-biphenyl]-4-yl)methyl)-3,3-dimethylbutanamide], the EC50 was at most 1 µM. `COc1ccc(-c2ccc(CN(C(=O)CC(C)(C)C)c3nccc4cc(N5CCN(C)CC5)ccc34)cc2)cc1C` [Compound 6.05, N-((4′-Methoxy-3′-methyl-[1,1′-biphenyl]-4-yl)methyl)-3,3-dimethyl-N-(6-(4-methylpiperazin-1-yl)isoquinolin-1-yl)butanamide] gave an EC50 of 1 to 10 µM. With `COc1ccc(-c2ccc(CN(C(=O)CC(C)(C)C)c3nccc4cc(N5CCOCC5)ccc34)cc2)cc1C` [Compound 6.06, N-((4′-Methoxy-3′-methyl-[1,1′-biphenyl]-4-yl)methyl)-3,3-dimethyl-N-(6-morpholinoisoquinolin-1-yl)butanamide] the EC50 was at most 1 µM. `COc1ccc(-c2ccc(CN(C(=O)CC(C)(C)C)c3nccc4cc(N5CCCCC5)ccc34)cc2)cc1C` [Compound 6.07, N-((4′-Methoxy-3′-methyl-[1,1′-biphenyl]-4-yl)methyl)-3,3-dimethyl-N-(6-(piperidin-1-yl)isoquinolin-1-yl)butanamide] was tested, and the EC50 was at most 1 µM. `COc1ccc(-c2ccc(CN(C(=O)CC(C)(C)C)c3nccc4cc(N5CCCC5)ccc34)cc2)cc1C` [Compound 6.08, N-((4′-Methoxy-3′-methyl-[1,1′-biphenyl]-4-yl)methyl)-3,3-dimethyl-N-(6-(pyrrolidin-1-yl)isoquinolin-1-yl)butanamide] gave an EC50 of at most 1 µM. Compound `COc1ccc(-c2ccc(CN(C(=O)CC(C)(C)C)c3nccc4cc(N5CCNCC5)ccc34)cc2)cc1C` [Compound 6.09, N-((4′-Methoxy-3′-methyl-[1,1′-biphenyl]-4-yl)methyl)-3,3-dimethyl-N-(6-(piperazin-1-yl)isoquinolin-1-yl)butanamide] has an EC50 of 1 to 10 µM. `CNc1ccc2c(N(Cc3ccc(-c4ccc(OC)c(C)c4)cc3)C(=O)CC(C)(C)C)nccc2c1` [Compound 6.11, N-((4′-Methoxy-3′-methyl-[1,1′-biphenyl]-4-yl)methyl)-3,3-dimethyl-N-(6-(methylamino)isoquinolin-1-yl)butanamide] gave an EC50 of at most 1 µM. Compound `COc1ccc(-c2ccc(CN(C(=O)CC(C)(C)C)c3nccc4cc(N5CCC(F)C5)ccc34)cc2)cc1C` (centres unmarked) [Compound 6.12, N-(6-(3-Fluoropyrrolidin-1-yl)isoquinolin-1-yl)-N-((4′-methoxy-3′-methyl-[1,1′-biphenyl]-4-yl)methyl)-3,3-dimethylbutanamide] has an EC50 of at most 1 µM. In the case of `COc1ccc(-c2ccc(CN(C(=O)CC(C)(C)C)c3nccc4cc(N5CCC(C#N)C5)ccc34)cc2)cc1C` (centres unmarked) [Compound 6.13, N-(6-(3-Cyanopyrrolidin-1-yl)isoquinolin-1-yl)-N-((4′-methoxy-3′-methyl-[1,1′-biphenyl]-4-yl)methyl)-3,3-dimethylbutanamide], the EC50 is reported as at most 1 µM. Compound `COc1ccc(-c2ccc(CN(C(=O)CC(C)(C)C)c3nccc4cc(N5CCC(CCO)C5)ccc34)cc2)cc1C` (centres unmarked) [Compound 6.14, N-(6-(3-(2-Hydroxyethyl)pyrrolidin-1-yl)isoquinolin-1-yl)-N-((4′-methoxy-3′-methyl-[1,1′-biphenyl]-4-yl)methyl)-3,3-dimethylbutanamide] has an EC50 of at most 1 µM. Work on `COc1ccc(-c2ccc(CN(C(=O)CC(C)(C)C)c3nccc4cc(N5CC(CO)C5)ccc34)cc2)cc1C` [Compound 6.15, N-(6-(3-(Hydroxymethyl)azetidin-1-yl)isoquinolin-1-yl)-N-((4′-methoxy-3′-methyl-[1,1′-biphenyl]-4-yl)methyl)-3,3-dimethylbutanamide] yielded an EC50 of at most 1 µM. `COc1ccc(-c2ccc(CN(C(=O)CC(C)(C)C)c3nccc4cc(N5CCC(CO)C5)ccc34)cc2)cc1C` (centres unmarked) [Compound 6.16, N-(6-(3-(Hydroxymethyl)pyrrolidin-1-yl)isoquinolin-1-yl)-N-((4′-methoxy-3′-methyl-[1,1′-biphenyl]-4-yl)methyl)-3,3-dimethylbutanamide] gave an EC50 of at most 1 µM. `COc1ccc(-c2ccc(CN(C(=O)CC(C)(C)C)c3nccc4cc(N5CCCC(O)C5)ccc34)cc2)cc1C` (centres unmarked) [Compound 6.17, N-(6-(3-Hydroxypiperidin-1-yl)isoquinolin-1-yl)-N-((4′-methoxy-3′-methyl-[1,1′-biphenyl]-4-yl)methyl)-3,3-dimethylbutanamide] was tested, and the EC50 was at most 1 µM. In the case of `COc1ccc(-c2ccc(CN(C(=O)CC(C)(C)C)c3nccc4cc(N5CCC(O)CC5)ccc34)cc2)cc1C` [Compound 6.18, N-(6-(4-Hydroxypiperidin-1-yl)isoquinolin-1-yl)-N-((4′-methoxy-3′-methyl-[1,1′-biphenyl]-4-yl)methyl)-3,3-dimethylbutanamide], the EC50 is reported as at most 1 µM. `COc1ccc(-c2ccc(CN(C(=O)CC(C)(C)C)c3nccc4cc(N5CCC(OC)C5)ccc34)cc2)cc1C` (centres unmarked) [Compound 6.19, N-((4′-Methoxy-3′-methyl-[1,1′-biphenyl]-4-yl)methyl)-N-(6-(3-methoxypyrrolidin-1-yl)isoquinolin-1-yl)-3,3-dimethylbutanamide] showed an EC50 of at most 1 µM. `COC(=O)Nc1ccc2c(N(Cc3ccc(-c4ccc(OC)c(C)c4)cc3)C(=O)CC(C)(C)C)nccc2c1` [Compound 6.21, Methyl (l-(N-((4′-methoxy-3′-methyl-[1,1′-biphenyl]-4-yl)methyl)-3,3-dimethylbutanamido)isoquinolin-6-yl)carbamate] gave an EC50 of at most 1 µM. Work on `COc1ccc(-c2ccc(CN(C(=O)CC(C)(C)C)c3nccc4cc(O)ccc34)cc2)cc1C` [Compound 7, N-(6-Hydroxyisoquinolin-1-yl)-N-((4′-methoxy-3′-methyl-[1,1′-biphenyl]-4-yl)methyl)-3,3-dimethylbutanamide] yielded an EC50 of at most 1 µM. `COc1ccc(-c2ccc(CN(C(=O)CC(C)(C)C)c3nccc4cc(OCCCO)ccc34)cc2)cc1C` [Compound 8, N-(6-(3-Hydroxypropoxy)isoquinolin-1-yl)-N-((4′-methoxy-3′-methyl-[1,1′-biphenyl]-4-yl)methyl)-3,3-dimethylbutanamide] showed an EC50 of at most 1 µM. Work on `COc1ccc(-c2ccc(CN(C(=O)CC(C)(C)C)c3nccc4cc(OCCCCO)ccc34)cc2)cc1C` [Compound 8.1, N-(6-(4-Hydroxybutoxy)isoquinolin-1-yl)-N-((4′-methoxy-3′-methyl-[1,1′-biphenyl]-4-yl)methyl)-3,3-dimethylbutanamide] yielded an EC50 of at most 1 µM. `CNC(=O)COc1ccc2c(N(Cc3ccc(-c4ccc(OC)c(C)c4)cc3)C(=O)CC(C)(C)C)nccc2c1` [Compound 8.01, N-((4′-Methoxy-3′-methyl-[1,1′-biphenyl]-4-yl)methyl)-3,3-dimethyl-N-(6-(2-(methylamino)-2-oxoethoxy)isoquinolin-1-yl)butanamide] gave an EC50 of 1 to 10 µM. `COc1ccc(-c2ccc(CN(C(=O)CC(C)(C)C)c3nccc4cc(OCC(=O)N(C)C)ccc34)cc2)cc1C` [Compound 8.02, N-(6-(2-(Dimethylamino)-2-oxoethoxy)isoquinolin-1-yl)-N-((4′-methoxy-3′-methyl-[1,1′-biphenyl]-4-yl)methyl)-3,3-dimethylbutanamide] gave an EC50 of at most 1 µM. Work on `COc1ccc(-c2ccc(CN(C(=O)CC(C)(C)C)c3nccc4cc(OCC(N)=O)ccc34)cc2)cc1C` [Compound 8.03, N-(6-(2-Amino-2-oxoethoxy)isoquinolin-1-yl)-N-((4′-methoxy-3′-methyl-[1,1′-biphenyl]-4-yl)methyl)-3,3-dimethylbutanamide] yielded an EC50 of at most 1 µM. For `COc1ccc(-c2ccc(CN(C(=O)CC(C)(C)C)c3nccc4cc(OCCN(C)C)ccc34)cc2)cc1C` [Compound 8.04, N-(6-(2-(Dimethylamino)ethoxy)isoquinolin-1-yl)-N-((4′-methoxy-3′-methyl-[1,1′-biphenyl]-4-yl)methyl)-3,3-dimethylbutanamide], the EC50 was 1 to 10 µM.
